#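 48-hour exposure; five concentrations; linearly interpolated endpoints. TGI: concentration producing complete growth inhibition.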
# What was measured:
# Experiment in all cases: inhibition of tumour cell growth, NCI panel, 48 h
# SNB-19 CNS = system: SNB-19 CNS
# HT29 colon = system: HT29 colon
# U251 CNS = system: U251 CNS
# SK-MEL-5 melanoma = system: SK-MEL-5 melanoma
# SF-268 CNS = system: SF-268 CNS
# HOP-62 NSCLC = system: HOP-62 NSCLC
# IGROV1 ovarian = system: IGROV1 ovarian
# T-47D breast = system: T-47D breast
# MDA-MB-231 breast = system: MDA-MB-231 breast
# NCI-H23 lung = system: NCI-H23 lung
# M14 melanoma = system: M14 melanoma
# K-562 leukemia = system: K-562 leukemia
# A549 NSCLC = system: A549 NSCLC
# HS 578T breast = system: HS 578T breast
# HL-60(TB) leukemia = system: HL-60(TB) leukemia
# EKVX NSCLC = system: EKVX NSCLC
# SK-MEL-2 melanoma = system: SK-MEL-2 melanoma
# HCT-116 colon = system: HCT-116 colon
# MOLT-4 leukemia = system: MOLT-4 leukemia
# SW-620 colon = system: SW-620 colon
# HCC-2998 colon = system: HCC-2998 colon
# RPMI-8226 leukemia = system: RPMI-8226 leukemia
# ACHN renal = system: ACHN renal
# A498 renal = system: A498 renal
# CAKI-1 renal = system: CAKI-1 renal
# 786-0 renal = system: 786-0 renal
# OVCAR-3 ovarian = system: OVCAR-3 ovarian
# CCRF-CEM leukemia = system: CCRF-CEM leukemia
# PC-3 prostate = system: PC-3 prostate
# SK-OV-3 ovarian = system: SK-OV-3 ovarian
# NCI-H226 lung = system: NCI-H226 lung
# SR leukemia = system: SR leukemia
# SN12C renal = system: SN12C renal
# DU-145 prostate = system: DU-145 prostate
# OVCAR-8 ovarian = system: OVCAR-8 ovarian
# COLO 205 colon = system: COLO 205 colon
# MDA-N = system: MDA-N
# MDA-MB-435 = system: MDA-MB-435
# TK-10 renal = system: TK-10 renal
# NCI/ADR-RES ovarian = system: NCI/ADR-RES ovarian
# OVCAR-4 ovarian = system: OVCAR-4 ovarian
# SF-295 CNS = system: SF-295 CNS
# UO-31 renal = system: UO-31 renal
# LOX IMVI melanoma = system: LOX IMVI melanoma
# MALME-3M melanoma = system: MALME-3M melanoma
# NCI-H522 lung = system: NCI-H522 lung
# SK-MEL-28 melanoma = system: SK-MEL-28 melanoma
# MCF7 breast = system: MCF7 breast
# OVCAR-5 ovarian = system: OVCAR-5 ovarian
# UACC-257 melanoma = system: UACC-257 melanoma
# SF-539 CNS = system: SF-539 CNS
# BT-549 breast = system: BT-549 breast
# NCI-H460 lung = system: NCI-H460 lung
# UACC-62 melanoma = system: UACC-62 melanoma
# KM12 colon = system: KM12 colon
# HCT-15 colon = system: HCT-15 colon
# SNB-75 CNS = system: SNB-75 CNS
# RXF 393 renal = system: RXF 393 renal
# HOP-92 NSCLC = system: HOP-92 NSCLC
smiles,measurement,setting,value
Clc1cc2c(cc1Cl)CC(NCCN1CCCC1)CC2 (stereo not given),TGI,SNB-19 CNS,46.3 µM
same,TGI,HT29 colon,18.1 µM
same,TGI,U251 CNS,31.1 µM
same,TGI,SK-MEL-5 melanoma,14.7 µM
same,TGI,SF-268 CNS,29.7 µM
same,TGI,HOP-62 NSCLC,30.7 µM
same,TGI,IGROV1 ovarian,29 µM
same,TGI,T-47D breast,25.5 µM
same,TGI,MDA-MB-231 breast,30.3 µM
same,TGI,NCI-H23 lung,30.9 µM
same,TGI,M14 melanoma,25.4 µM
same,TGI,K-562 leukemia,48.9 µM
same,TGI,A549 NSCLC,29.4 µM
same,TGI,HS 578T breast,42.4 µM
same,TGI,HL-60(TB) leukemia,37.6 µM
same,TGI,EKVX NSCLC,38.7 µM
same,TGI,SK-MEL-2 melanoma,34.9 µM
same,TGI,HCT-116 colon,26.3 µM
same,TGI,MOLT-4 leukemia,60 µM
same,TGI,SW-620 colon,45.7 µM
same,TGI,HCC-2998 colon,8.02 µM
same,TGI,RPMI-8226 leukemia,38.1 µM
same,TGI,ACHN renal,31.8 µM
same,TGI,A498 renal,27.4 µM
same,TGI,CAKI-1 renal,30.2 µM
same,TGI,786-0 renal,26.3 µM
same,TGI,OVCAR-3 ovarian,32 µM
same,TGI,CCRF-CEM leukemia,> 100 µM
same,TGI,PC-3 prostate,30.3 µM
same,TGI,SK-OV-3 ovarian,34.9 µM
same,TGI,NCI-H226 lung,32.1 µM
same,TGI,SR leukemia,38 µM
same,TGI,SN12C renal,31.4 µM
same,TGI,DU-145 prostate,27.8 µM
same,TGI,OVCAR-8 ovarian,31.1 µM
same,TGI,COLO 205 colon,10.7 µM
same,TGI,MDA-N,14.3 µM
same,TGI,MDA-MB-435,14.4 µM
same,TGI,TK-10 renal,27.6 µM
same,TGI,NCI/ADR-RES ovarian,27.8 µM
same,TGI,OVCAR-4 ovarian,35.9 µM
same,TGI,SF-295 CNS,29.8 µM
same,TGI,UO-31 renal,23.6 µM
same,TGI,LOX IMVI melanoma,27.2 µM
same,TGI,MALME-3M melanoma,22.8 µM
same,TGI,NCI-H522 lung,32.4 µM
same,TGI,SK-MEL-28 melanoma,29.9 µM
same,TGI,MCF7 breast,31 µM
same,TGI,OVCAR-5 ovarian,29.6 µM
same,TGI,UACC-257 melanoma,21.3 µM
same,TGI,SF-539 CNS,28 µM
same,TGI,BT-549 breast,28.8 µM
same,TGI,NCI-H460 lung,31.2 µM
same,TGI,UACC-62 melanoma,8.15 µM
same,TGI,KM12 colon,32.3 µM
same,TGI,HCT-15 colon,26.5 µM
C[C@H](CCC(=O)O)[C@H]1CC[C@@]2(C)[C@@H]3C(=O)C[C@H]4C(C)(C)[C@@H](O)CC[C@]4(C)[C@H]3C(=O)C[C@]12C,TGI,SNB-19 CNS,> 100 µM
same,TGI,HT29 colon,> 100 µM
same,TGI,U251 CNS,> 100 µM
same,TGI,SK-MEL-5 melanoma,> 100 µM
same,TGI,SF-268 CNS,> 100 µM
same,TGI,HOP-62 NSCLC,> 100 µM
same,TGI,IGROV1 ovarian,> 100 µM
same,TGI,T-47D breast,> 100 µM
same,TGI,MDA-MB-231 breast,> 100 µM
same,TGI,NCI-H23 lung,> 100 µM
same,TGI,M14 melanoma,> 100 µM
same,TGI,K-562 leukemia,> 100 µM
same,TGI,SNB-75 CNS,> 100 µM
same,TGI,A549 NSCLC,> 100 µM
same,TGI,HS 578T breast,> 100 µM
same,TGI,HL-60(TB) leukemia,> 100 µM
same,TGI,EKVX NSCLC,> 100 µM
same,TGI,SK-MEL-2 melanoma,> 100 µM
same,TGI,HCT-116 colon,> 100 µM
same,TGI,MOLT-4 leukemia,> 100 µM
same,TGI,SW-620 colon,> 100 µM
same,TGI,HCC-2998 colon,> 100 µM
same,TGI,RPMI-8226 leukemia,> 100 µM
same,TGI,ACHN renal,> 100 µM
same,TGI,A498 renal,> 100 µM
same,TGI,CAKI-1 renal,> 100 µM
same,TGI,786-0 renal,> 100 µM
same,TGI,OVCAR-3 ovarian,> 100 µM
same,TGI,CCRF-CEM leukemia,> 100 µM
same,TGI,PC-3 prostate,> 100 µM
same,TGI,RXF 393 renal,> 100 µM
same,TGI,SK-OV-3 ovarian,> 100 µM
same,TGI,NCI-H226 lung,> 100 µM
same,TGI,SR leukemia,> 100 µM
same,TGI,SN12C renal,> 100 µM
same,TGI,DU-145 prostate,> 100 µM
same,TGI,OVCAR-8 ovarian,> 100 µM
same,TGI,COLO 205 colon,> 100 µM
same,TGI,MDA-N,> 100 µM
same,TGI,MDA-MB-435,> 100 µM
same,TGI,TK-10 renal,> 100 µM
same,TGI,NCI/ADR-RES ovarian,> 100 µM
same,TGI,OVCAR-4 ovarian,> 100 µM
same,TGI,SF-295 CNS,> 100 µM
same,TGI,UO-31 renal,30.2 µM
same,TGI,LOX IMVI melanoma,> 100 µM
same,TGI,MALME-3M melanoma,> 100 µM
same,TGI,NCI-H522 lung,> 100 µM
same,TGI,SK-MEL-28 melanoma,> 100 µM
same,TGI,MCF7 breast,> 100 µM
same,TGI,OVCAR-5 ovarian,> 100 µM
same,TGI,UACC-257 melanoma,> 100 µM
same,TGI,HOP-92 NSCLC,> 100 µM
same,TGI,SF-539 CNS,> 100 µM
same,TGI,BT-549 breast,> 100 µM
same,TGI,NCI-H460 lung,> 100 µM
same,TGI,UACC-62 melanoma,> 100 µM
same,TGI,KM12 colon,> 100 µM
same,TGI,HCT-15 colon,> 100 µM

# Reference: PubChem BioAssay (NCI)
